Where “and” joins values, the source holds several entries; their conditions need not be identical. Identical values can stand only once. Calls of active or inactive are those of the source. The rule behind the calls is not given here.
Test system: rodent lifetime carcinogenesis bioassay, tumor incidence TD50
Assay: carcinogenic potency in animals, long-term in vivo studies, CPDB compilation (AID 1745844)

CCC(Br)(CC)C(=O)NC(N)=O
TD50 (mouse, strain B6C3F1, females, in feed, site: any site (literature study), lesion: several types, types named in the paper, dosed 78 weeks, study length 104 weeks): 5320 mg/kg/day
TD50 (mouse, strain B6C3F1, females, in feed, site: liver, lesion: hepatocellular adenoma + hepatocellular carcinoma + neoplastic nodule, dosed 78 weeks, study length 104 weeks): 1950 mg/kg/day
TD50 (mouse, strain B6C3F1, females, in feed, site: lung, lesion: alveolar/bronchiolar adenoma + alveolar/bronchiolar carcinoma, dosed 78 weeks, study length 104 weeks): 553 mg/kg/day (inactive) and 553 mg/kg/day
carcinogen call (mouse, strain B6C3F1, males, in feed, site: any site (literature study), lesion: several types, types named in the paper, dosed 78 weeks, study length 104 weeks): negative (inactive)
TD50 (mouse, strain B6C3F1, males, in feed, site: liver, lesion: hepatocellular adenoma + hepatocellular carcinoma + neoplastic nodule, dosed 78 weeks, study length 104 weeks): 1580 mg/kg/day
carcinogen call (rat, strain Fischer 344, females, in feed, site: any site (literature study), lesion: several types, types named in the paper, dosed 103 weeks, study length 104 weeks): negative (inactive)
TD50 (rat, strain Fischer 344, males, in feed, site: any site (literature study), lesion: several types, types named in the paper, dosed 103 weeks, study length 104 weeks): 1030 mg/kg/day (inactive)

CC1CN(N=O)CC(C)O1 (centres undefined)
TD50 (hamster, strain Syrian Golden, females, by gavage, site: any site (literature study), lesion: several types, types named in the paper, dosed 59 weeks, study length 83 weeks): 1.55 mg/kg/day
TD50 (hamster, strain Syrian Golden, females, by gavage, site: forestomach, lesion: several types, types named in the paper, dosed 59 weeks, study length 83 weeks): 9.45 mg/kg/day
TD50 (hamster, strain Syrian Golden, females, by gavage, site: gall bladder, lesion: several types, types named in the paper, dosed 59 weeks, study length 83 weeks): 12.9 mg/kg/day
carcinogen call (hamster, strain Syrian Golden, females, by gavage, site: larynx, lesion: squamous-cell papilloma, dosed 59 weeks, study length 83 weeks): positive
TD50 (hamster, strain Syrian Golden, females, by gavage, site: liver, lesion: several types, types named in the paper, dosed 59 weeks, study length 83 weeks): 11 mg/kg/day
TD50 (hamster, strain Syrian Golden, females, by gavage, site: lung, lesion: several types, types named in the paper, dosed 59 weeks, study length 83 weeks): 34.6 mg/kg/day
TD50 (hamster, strain Syrian Golden, females, by gavage, site: pancreas, lesion: several types, types named in the paper, dosed 59 weeks, study length 83 weeks): 5.75 mg/kg/day
TD50 (hamster, strain Syrian Golden, females, by gavage, site: pancreatic duct, lesion: adenoma, dosed 59 weeks, study length 83 weeks): 6.99 mg/kg/day
TD50 (hamster, strain Syrian Golden, females, by gavage, site: pancreatic duct, lesion: carcinoma, dosed 59 weeks, study length 83 weeks): 32.1 mg/kg/day
TD50 (hamster, strain Syrian Golden, females, by gavage, site: several sites, sites named in the paper, lesion: several types, types named in the paper, dosed 59 weeks, study length 83 weeks): 9.17 mg/kg/day and 16.9 mg/kg/day
TD50 (hamster, strain Syrian Golden, females, by gavage, site: trachea, lesion: papillary polyp, dosed 59 weeks, study length 83 weeks): 6.4 mg/kg/day
TD50 (hamster, strain Syrian Golden, males, by gavage, site: any site (literature study), lesion: several types, types named in the paper, dosed 66 weeks, study length 87 weeks): 1.68 mg/kg/day
TD50 (hamster, strain Syrian Golden, males, by gavage, site: forestomach, lesion: several types, types named in the paper, dosed 66 weeks, study length 87 weeks): 2.91 mg/kg/day
TD50 (hamster, strain Syrian Golden, males, by gavage, site: larynx, lesion: squamous-cell papilloma, dosed 66 weeks, study length 87 weeks): 27.3 mg/kg/day
TD50 (hamster, strain Syrian Golden, males, by gavage, site: liver, lesion: several types, types named in the paper, dosed 66 weeks, study length 87 weeks): 10.1 mg/kg/day
TD50 (hamster, strain Syrian Golden, males, by gavage, site: lung, lesion: several types, types named in the paper, dosed 66 weeks, study length 87 weeks): 1.21 mg/kg/day
TD50 (hamster, strain Syrian Golden, males, by gavage, site: pancreas, lesion: several types, types named in the paper, dosed 66 weeks, study length 87 weeks): 2.78 mg/kg/day
TD50 (hamster, strain Syrian Golden, males, by gavage, site: pancreatic duct, lesion: adenoma, dosed 66 weeks, study length 87 weeks): 21.2 mg/kg/day
TD50 (hamster, strain Syrian Golden, males, by gavage, site: pancreatic duct, lesion: carcinoma, dosed 66 weeks, study length 87 weeks): 6.67 mg/kg/day
TD50 (hamster, strain Syrian Golden, males, by gavage, site: trachea, lesion: papillary polyp, dosed 66 weeks, study length 87 weeks): 10.5 mg/kg/day

O[C@H]([C@H](O)[C@@H](O)CBr)[C@H](O)CBr
TD50 (mouse, strain Swiss, females, i.p., site: all sites, lesion: leukemia, dosed 26 weeks, study length 78 weeks): 46.3 mg/kg/day
TD50 (mouse, strain Swiss, females, i.p., site: all sites, lesion: lymphosarcoma, dosed 26 weeks, study length 78 weeks): 12.2 mg/kg/day
TD50 (mouse, strain Swiss, females, i.p., site: any site (literature study), lesion: benign tumor, dosed 26 weeks, study length 78 weeks): 24.5 mg/kg/day
TD50 (mouse, strain Swiss, females, i.p., site: any site (literature study), lesion: malignant tumor, dosed 26 weeks, study length 78 weeks): 4.75 mg/kg/day
TD50 (mouse, strain Swiss, females, i.p., site: any site (literature study), lesion: several types, types named in the paper, dosed 26 weeks, study length 78 weeks): 2.45 mg/kg/day
TD50 (mouse, strain Swiss, females, i.p., site: lung, lesion: several types, types named in the paper, dosed 26 weeks, study length 78 weeks): 9.23 mg/kg/day
TD50 (mouse, strain Swiss, males, i.p., site: all sites, lesion: lymphatic leukemia, dosed 26 weeks, study length 78 weeks): 32.4 mg/kg/day
TD50 (mouse, strain Swiss, males, i.p., site: all sites, lesion: lymphosarcoma, dosed 26 weeks, study length 78 weeks): 17.6 mg/kg/day
TD50 (mouse, strain Swiss, males, i.p., site: any site (literature study), lesion: malignant tumor, dosed 26 weeks, study length 78 weeks): 15.2 mg/kg/day
TD50 (mouse, strain Swiss, males, i.p., site: any site (literature study), lesion: several types, types named in the paper, dosed 26 weeks, study length 78 weeks): 12.7 mg/kg/day
TD50 (mouse, strain Swiss, males, i.p., site: lung, lesion: several types, types named in the paper, dosed 26 weeks, study length 78 weeks): 13.5 mg/kg/day
TD50 (rat, strain Charles River CD (Sprague-Dawley), males, i.p., site: all sites, lesion: lymphosarcoma, dosed 26 weeks, study length 78 weeks): 182 mg/kg/day
TD50 (rat, strain Charles River CD (Sprague-Dawley), males, i.p., site: any site (literature study), lesion: malignant tumor, dosed 26 weeks, study length 78 weeks): 5.05 mg/kg/day
TD50 (rat, strain Charles River CD (Sprague-Dawley), males, i.p., site: any site (literature study), lesion: several types, types named in the paper, dosed 26 weeks, study length 78 weeks): 3.13 mg/kg/day
TD50 (rat, strain Charles River CD (Sprague-Dawley), males, i.p., site: mammary gland, lesion: squamous-cell carcinoma, dosed 26 weeks, study length 78 weeks): 182 mg/kg/day
TD50 (rat, strain Charles River CD (Sprague-Dawley), males, i.p., site: peritoneum, lesion: sarcoma, dosed 26 weeks, study length 78 weeks): 59.2 mg/kg/day
TD50 (rat, strain Charles River CD (Sprague-Dawley), males, i.p., site: skin, lesion: several types, types named in the paper, dosed 26 weeks, study length 78 weeks): 8.37 mg/kg/day
